Measured values from patent publication US11214594B2, “Antimicrobial peptide having synergistic antibacterial effect with antibiotics on multidrug resistant bacteria, and use thereof” (priority 2016, dated 2022).
≈ marks a conversion by molar mass, not a printed value. Like-named read-outs stand apart in the source and are kept apart here. Where a SMILES comes first, the peptide text is derived from it.

Columns and labels:
[1] = system: MDREC 1238; type: cell-based, Escherichia coli
Outline: (§1)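 Broth microdilution in MH medium: bacterial strains diluted to 2×10^6 CFU were mixed with equal volumes of peptide serially diluted twofold in MH medium.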

[2] = system: MDREC 1229; test: MIC of antibiotic during combined treatment with antimicrobial peptide; type: cell-based, Escherichia coli
Outline: (§2)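 Strains in MH medium at 2×10^6 CFU/ml were mixed with peptide diluted stepwise (2:1) from its MIC, then antibiotic dilutions in MH medium were added to give the antibiotic MIC. The reversed set-up, peptide titrated against fixed antibiotic, gave the peptide MIC.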

[3] = system: P. aeruginosa; test: microbe, parasite or virus in culture; type: cell-based, Pseudomonas aeruginosa
Outline: as §1

[4] = system: MDRAB 12036; type: cell-based, Acinetobacter baumannii
Outline: as §1

[5] = system: MDRST 8009; type: cell-based, Salmonella typhimurium; settings: agent alone
Outline: as §1

[6] = system: E. coli; type: cell-based, Escherichia coli; settings: E. coli
Outline: as §2

[7] = system: MDREC 1229; type: cell-based, Escherichia coli
Outline: as §2

[8] = system: A. baumannii; test: MIC of antimicrobial peptide during combined treatment with antibiotic; type: cell-based, Acinetobacter baumannii
Outline: as §2

[9] = system: MDRAB 12035; test: as above; type: cell-based, Acinetobacter baumannii
Outline: as §2

[10] = system: MDRPA 2003; type: cell-based, Pseudomonas aeruginosa
Outline: as §1

[11] = system: MDRAB 12035; test: MIC of antibiotic during combined treatment with antimicrobial peptide; type: cell-based, Acinetobacter baumannii
Outline: as §2

[12] = system: S. epidermidis; test: microbe, parasite or virus in culture; type: cell-based, Staphylococcus epidermidis
Outline: as §1

[13] = system: A. baumannii; test: MIC of antibiotic during combined treatment with antimicrobial peptide; type: cell-based, Acinetobacter baumannii; settings: for Antibiotic MIC, Erythromycin / Antibiotic MIC, Linezolid / Antibiotic MIC, Vancomycin: A. baumannii
Outline: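 Checkerboard-type MIC of peptide–antibiotic mixtures in MH medium: the antibiotic was serially diluted in MH medium and added to wells, then the reversed arrangement was also tested.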

[14] = peptide treatment concentration 1 μg/ml
[15] = peptide treatment concentration 2 μg/ml
[16] = peptide treatment concentration 4 μg/ml
[17] = peptide treatment concentration 6 μg/ml
[18] = peptide treatment concentration 8 μg/ml
[19] = peptide treatment concentration 16 μg/ml
[20] = peptide treatment concentration 32 μg/ml
[21] = peptide treatment concentration 64 μg/ml
[22] = with Erythromycin […] (Conc./MIC 1)
[23] = erythromycin 4 μg/ml (Conc./MIC 1/8)
[24] = erythromycin 8 μg/ml (Conc./MIC 1/4)
[25] = erythromycin 16 μg/ml (Conc./MIC 1/2)
[26] = erythromycin 32 μg/ml (Conc./MIC 1)
[27] = vancomycin 512 μg/ml (Conc./MIC 1/2)
[28] = vancomycin 1024 μg/ml (Conc./MIC 1)
[29] = combined with peptide at 1 μg/ml
[30] = combined with peptide at 2 μg/ml
[31] = combined with peptide at 4 μg/ml
[32] = combined with peptide at 6 μg/ml
[33] = combined with peptide at 8 μg/ml
[34] = combined with peptide at 16 μg/ml
[35] = combined with peptide at 32 μg/ml
[36] = combined with peptide at 64 μg/ml

Structure (SMILES): CC[C@H](C)[C@H](NC(=O)[C@H](CCCCN)NC(=O)[C@H](Cc1c[nH]c2ccccc12)NC(=O)[C@@H](N)CCCNC(=N)N)C(=O)N[C@@H](Cc1ccccc1)C(=O)N[C@@H](CCCCN)C(=O)N[C@@H](CCCCN)C(=O)N[C@H](C(=O)N1CCC[C@H]1C(=O)N[C@@H](CCCCN)C(=O)N[C@@H](Cc1ccccc1)C(=O)N[C@@H](CC(C)C)C(=O)N[C@@H](Cc1c[nH]cn1)C(=O)N[C@@H](CO)C(=O)N[C@@H](Cc1c[nH]c2ccccc12)C(=O)N[C@@H](CCCCN)C(=O)N[C@@H](CCCCN)C(=O)N[C@@H](Cc1ccccc1)C(N)=O)[C@@H](C)CC [PapMA-3, RWK IFK KIP KFL HSW KKF-NH2] (H-RWKIFKKIPKFLHSWKKF-NH2; N-terminus assumed)
- Minimal inhibitory concentration MIC [1]: 64 µg/mL (≈ 26.5 µM)
- Antibiotic MIC, Erythromycin [2, 14]: 128 µg/mL
- Antibiotic MIC, Linezolid [2, 14]: >128 µg/mL
- Antibiotic MIC, Vancomycin [2, 14]: >128 µg/mL
- Antibiotic MIC, Erythromycin [2, 15]: 32 µg/mL
- Antibiotic MIC, Linezolid [2, 15]: 64 µg/mL
- Antibiotic MIC, Vancomycin [2, 15]: >128 µg/mL
- Antibiotic MIC, Erythromycin [2, 16]: 32 µg/mL
- Antibiotic MIC, Linezolid [2, 16]: 64 µg/mL
- Antibiotic MIC, Vancomycin [2, 16]: >128 µg/mL
- Antibiotic MIC, Erythromycin [2, 17]: 16 µg/mL
- Antibiotic MIC, Linezolid [2, 17]: 32 µg/mL
- Antibiotic MIC, Vancomycin [2, 17]: >128 µg/mL
- Antibiotic MIC, Erythromycin [2, 18]: 4 µg/mL
- Antibiotic MIC, Linezolid [2, 18]: 16 µg/mL
- Antibiotic MIC, Vancomycin [2, 18]: 128 µg/mL
- Antibiotic MIC, Erythromycin [2, 19]: 0.25 µg/mL
- Antibiotic MIC, Linezolid [2, 19]: 4 µg/mL
- Antibiotic MIC, Vancomycin [2, 19]: 16 µg/mL
- Antibiotic MIC, Erythromycin [2, 20]: 0 µg/mL
- Antibiotic MIC, Linezolid [2, 20]: 0 µg/mL
- Antibiotic MIC, Vancomycin [2, 20]: 0 µg/mL
- Antibiotic MIC, Erythromycin [2, 21]: 0 µg/mL
- Antibiotic MIC, Linezolid [2, 21]: 0 µg/mL
- Antibiotic MIC, Vancomycin [2, 21]: 0 µg/mL
- Minimal inhibitory concentration MIC [3]: 16 µg/mL (≈ 6.62 µM)
- Minimal inhibitory concentration MIC [4]: 16 µg/mL (≈ 6.62 µM)
- Minimal inhibitory concentration MIC [5]: 64 µg/mL (≈ 26.5 µM)
- Peptide MIC [6, 22]: 0 µg/mL
- Peptide MIC ([6]; with Linezolid […] (Conc./MIC 1)): 0 µg/mL
- Peptide MIC ([6]; with Vancomycin 1024 μg/ml (Conc./MIC 1)): 0 µg/mL
- Peptide MIC [7, 22]: 0 µg/mL
- Peptide MIC ([7]; with Linezolid 512 μg/ml (Conc./MIC 1)): 0 µg/mL
- Peptide MIC during treatment with antibiotic [8, 23]: 4 µg/mL
- Peptide MIC during treatment with antibiotic [8, 24]: 4 µg/mL
- Peptide MIC during treatment with antibiotic [8, 25]: 2 µg/mL
- Peptide MIC during treatment with antibiotic [8, 26]: 0 µg/mL
- Peptide MIC during treatment with antibiotic ([8]; linezolid 32 μg/ml (Conc./MIC 1/8)): 4 µg/mL
- Peptide MIC during treatment with antibiotic ([8]; linezolid 64 μg/ml (Conc./MIC 1/4)): 2 µg/mL
- Peptide MIC during treatment with antibiotic ([8]; linezolid […] (Conc./MIC 1)): 0 µg/mL
- Peptide MIC during treatment with antibiotic ([8]; linezolid […] (Conc./MIC 1/2)): 1 µg/mL
- Peptide MIC during treatment with antibiotic [8, 27]: 0.25 µg/mL
- Peptide MIC during treatment with antibiotic [8, 28]: 0 µg/mL
- Peptide MIC during treatment with antibiotic ([8]; vancomycin […] (Conc./MIC 1/4)): 0.25 µg/mL
- Peptide MIC during treatment with antibiotic ([8]; vancomycin […] (Conc./MIC 1/8)): 2 µg/mL
- Peptide MIC during treatment with erythromycin [9, 23]: 4 µg/mL
- Peptide MIC during treatment with erythromycin [9, 24]: 4 µg/mL
- Peptide MIC during treatment with erythromycin [9, 25]: 2 µg/mL
- Peptide MIC during treatment with erythromycin [9, 26]: 0 µg/mL
- Peptide MIC during treatment with linezolid ([9]; linezolid 64 μg/ml (Conc./MIC 1/8)): 4 µg/mL
- Peptide MIC during treatment with linezolid ([9]; linezolid 512 μg/ml (Conc./MIC 1)): 0 µg/mL
- Peptide MIC during treatment with linezolid ([9]; linezolid […] (Conc./MIC 1/2)): 1 µg/mL
- Peptide MIC during treatment with linezolid ([9]; linezolid […] (Conc./MIC 1/4)): 2 µg/mL
- Peptide MIC during treatment with vancomycin [9, 27]: 2 µg/mL
- Peptide MIC during treatment with vancomycin [9, 28]: 0.25 µg/mL
- Peptide MIC during treatment with vancomycin ([9]; vancomycin […] (Conc./MIC 1/4)): 2 µg/mL
- Peptide MIC during treatment with vancomycin ([9]; vancomycin […] (Conc./MIC 1/8)): 4 µg/mL
- Minimal inhibitory concentration MIC [10]: 16 µg/mL (≈ 6.62 µM)
- Erythromycin MIC during combined treatment with peptide [11, 14]: 32 µg/mL
- Linezolid MIC during combined treatment with peptide [11, 14]: >128 µg/mL
- Vancomycin MIC during combined treatment with peptide [11, 14]: >128 µg/mL
- Erythromycin MIC during combined treatment with peptide [11, 15]: 16 µg/mL
- Linezolid MIC during combined treatment with peptide [11, 15]: 128 µg/mL
- Vancomycin MIC during combined treatment with peptide [11, 15]: >128 µg/mL
- Erythromycin MIC during combined treatment with peptide [11, 16]: 8 µg/mL
- Linezolid MIC during combined treatment with peptide [11, 16]: 32 µg/mL
- Vancomycin MIC during combined treatment with peptide [11, 16]: 128 µg/mL
- Erythromycin MIC during combined treatment with peptide [11, 17]: 4 µg/mL
- Linezolid MIC during combined treatment with peptide [11, 17]: 32 µg/mL
- Vancomycin MIC during combined treatment with peptide [11, 17]: 32 µg/mL
- Erythromycin MIC during combined treatment with peptide [11, 18]: 0.25 µg/mL
- Linezolid MIC during combined treatment with peptide [11, 18]: 16 µg/mL
- Vancomycin MIC during combined treatment with peptide [11, 18]: 16 µg/mL
- Erythromycin MIC during combined treatment with peptide [11, 19]: 0 µg/mL
- Linezolid MIC during combined treatment with peptide [11, 19]: 0 µg/mL
- Vancomycin MIC during combined treatment with peptide [11, 19]: 0 µg/mL
- Erythromycin MIC during combined treatment with peptide [11, 20]: 0 µg/mL
- Linezolid MIC during combined treatment with peptide [11, 20]: 0 µg/mL
- Vancomycin MIC during combined treatment with peptide [11, 20]: 0 µg/mL
- Erythromycin MIC during combined treatment with peptide [11, 21]: 0 µg/mL
- Linezolid MIC during combined treatment with peptide [11, 21]: 0 µg/mL
- Vancomycin MIC during combined treatment with peptide [11, 21]: 0 µg/mL
- Minimal inhibitory concentration MIC [12]: >128 µg/mL
- Synergistic effect of antibacterial activity with existing antibiotics compared with PapMA-1 ([13]; A. baumannii and MDRAB 12035): higher level than the PapMA-1 peptide
- Antibiotic MIC, Erythromycin [13, 29]: 32 µg/mL
- Antibiotic MIC, Linezolid [13, 29]: >128 µg/mL
- Antibiotic MIC, Vancomycin [13, 29]: >128 µg/mL
- Antibiotic MIC, Erythromycin [13, 30]: 16 µg/mL
- Antibiotic MIC, Linezolid [13, 30]: 64 µg/mL
- Antibiotic MIC, Vancomycin [13, 30]: 128 µg/mL
- Antibiotic MIC, Erythromycin [13, 31]: 8 µg/mL
- Antibiotic MIC, Linezolid [13, 31]: 32 µg/mL
- Antibiotic MIC, Vancomycin [13, 31]: 64 µg/mL
- Antibiotic MIC, Erythromycin [13, 32]: 1 µg/mL
- Antibiotic MIC, Linezolid [13, 32]: 16 µg/mL
- Antibiotic MIC, Vancomycin [13, 32]: 32 µg/mL
- Antibiotic MIC, Erythromycin [13, 33]: 0.125 µg/mL
- Antibiotic MIC, Linezolid [13, 33]: 8 µg/mL
- Antibiotic MIC, Vancomycin [13, 33]: 32 µg/mL
- Antibiotic MIC, Erythromycin [13, 34]: 0 µg/mL
- Antibiotic MIC, Linezolid [13, 34]: 0 µg/mL
- Antibiotic MIC, Vancomycin [13, 34]: 0 µg/mL
- Antibiotic MIC, Erythromycin [13, 35]: 0 µg/mL
- Antibiotic MIC, Linezolid [13, 35]: 0 µg/mL
- Antibiotic MIC, Vancomycin [13, 35]: 0 µg/mL
- Antibiotic MIC, Erythromycin [13, 36]: 0 µg/mL
- Antibiotic MIC, Linezolid [13, 36]: 0 µg/mL
- Antibiotic MIC, Vancomycin [13, 36]: 0 µg/mL
